Patent publication US7951598B2, “Differential hemolysis of a whole blood sample” (Roche Diagnostics Operations, Inc., priority 2006, dated 2011)

Tests used:
[1] = test system: red blood cells in EDTA-stabilized whole blood; experiment: Visual evaluation of hemolysis (time until hemolysate is clear); type: cell-based
Procedure: Whether the conditions for differential hemolysis are appropriate can be easily and preferably determined by using the following standardized procedure. A whole blood sample with a hematocrit of 40 is diluted 1:10 and mixed 1:1 with the candidate hemolysis reagent. The efficacy of a reagent for bringing about differential hemolysis is seen visually. Upon lysis of the erythrocytes the mixture becomes clear. If precipitation of sample constituents occurs the sample becomes turbid or viscous or both.
(§1) Solution A: Fresh EDTA-stabilized whole blood is diluted with 0.15 molar sodium chloride solution in the ratio 1:10 (50 μL EDTA-blood plus 450 μL sodium chloride solution).
In the case of the addition of a second compound, e.g. potassium iodide (1-Butyl-3-methyl pyridiniumchloride/KJ) the stated salt is added in an approximately equimolar amount.
Hemolysate is prepared by mixing solution A and B in equal volumes, e.g. 500 μL solution A plus 500 μL solution B.
After mixing the hemolysate is inspected visually for turbidometry and clearness immediately after mixing, after 1 minute, 2, 5, 6, 7, 20 and 40 minutes. The time until a clear solution is observed is recorded.

[2] = test system: erythrocytes in whole blood; experiment: Microscopic evaluation of hemolysis, May-Grünwald staining; type: cell-based
Procedure: as §1
(§2) Solution B: A solution of the hemolysis reagent in 0.15 molar sodium chloride is prepared where the concentration of the hemolysis reagent is twice as high as the desired final concentration in the hemolysate, e.g. to get a final concentration of 25% of 1-Butyl-4-methylpyridinium tetrafluoroborate a solution of 50% ([…] salt plus 50 mL 0.15 molar sodium chloride in water) is prepared. In the case of the addition of a second anion, e.g. iodide (1-Butyl-3-methylpyridiniumchloride/KJ) the stated salt is added in an equimolar amount.
Hemolysate is prepared by mixing solution A and B in equal volumes, e.g. 20 μL solution A plus 20 μL solution B.
After mixing of the hemolysate a droplet is smeared on a microscope slide, air dried at room temperature and stained with May-Grünwald staining reagent (Merck Cat. No. 1.01424 May-Grünwald's Eosin Methylene Blue Solution).
Microscopy is performed by oil immersion light microscopy (magnification ×630).

[3] = test system: erythrocytes in whole blood; experiment: Microscopic evaluation of hemolysis, Trypane blue staining; type: cell-based; conditions: reagent 25%, 1 in 10 diluted whole blood
Procedure: The integrity of red blood cells can for example be easily assessed by appropriate life stains. In a preferred embodiment according to the present invention trypane blue is used in order to assess the integrity of a red blood cell, membrane. […] The membrane integrity of a red blood cell is easily assessed under the microscope after staining a sample with trypane blue. The percentage of disrupted red blood cells is calculated by counting intact red blood cells before and after the treatment, by then dividing the first number by the latter number and by then multiplying this value by 100. Red blood cells that are solubilized are referred to as lyzed red blood cells or as lyzed erythrocytes.
as §1
as §2, with “In the case of the addition of a second anion, e.g. iodide (1-Butyl-3-methylpyridiniumchloride/KJ) the stated salt is added in an equimolar amount.” left out

[4] = in vitro; cited from earlier work
[5] = in vivo; cited from earlier work
[6] = final concentration 25% (weight/volume), whole blood final dilution 1:20
[7] = final concentration 12.5% (weight/volume)

Compound: CCCCCCCC[N+]1(C)CCCC1.[Cl-] [1-Methyl-1-octyl pyrrolidiniumchloride]
- clear after (min.) ([1]; final concentration 2.5% (weight/volume)): turbid
- clear after (min.) [1, 6]: immediately

Compound: CCCCCC[n+]1ccccc1.[Cl-] [1-Hexylpyridiniumchloride]
- clear after (min.) [1, 7]: turbid
- clear after [1, 6]: 7 min

Compound: O [water, reference compound]
- light microscopy of hemolyzed whole blood, May-Grünwald staining ([2]; hemolyzed with water, 1 in 10 diluted whole blood (FIG. 1)): Erythrocyte membranes and nuclei are visible

Compound: CCCCn1cc[n+](C)c1.F[B-](F)(F)F [1-Butyl-3-methyl-imidazolium tetrafluoroborate]
- clear after [1, 6]: 20 min

Compound: CCCCCCCC[n+]1ccccc1.[Cl-] [N-Octylpyridiniumchloride]
- clear after [1, 6]: 2 min

Compound: CCCCCCCCOC[n+]1cccc(C(N)=O)c1.[Cl-] [3-Carbamoyl-1-octyloxymethyl pyridiniumchloride]
- clear after (min.) ([1]; final concentration 1.5% (weight/volume)): immediately
- clear after (min.) ([1]; final concentration 6.25% (weight/volume)): immediately
- clear after (min.) [1, 7]: immediately

Compound: CCCC[n+]1ccc(C)cc1.F[B-](F)(F)F [1-Butyl-4-methylpyridinium tetrafluoroborate]
- light microscopy of hemolyzed whole blood, May-Grünwald staining ([2]; reagent 25%, 1 in 10 diluted whole blood (FIG. 2)): No erythrocytes or membranes are left, nuclei are still intact
- light microscopy of hemolyzed whole blood, Trypane blue staining ([3]; 2.5 min incubation time (FIG. 4a)): Only few residual erythrocytes are left
- light microscopy of hemolyzed whole blood, Trypane blue staining ([3]; 15 min incubation time (FIG. 4b)): No erythrocytes or membranes are left
- clear after (min.) ([1]; final concentration 6% (weight/volume)): turbid
- clear after [1, 7]: 40 min
- clear after [1, 6]: 20 min

Compound: C=CC[C@@H]1/C=C(\C)C[C@H](C)C[C@H](OC)[C@H]2O[C@@](O)(C(=O)C(=O)N3CCCC[C@H]3C(=O)O[C@H](/C(C)=C/[C@@H]3CC[C@@H](O)[C@H](OC)C3)[C@H](C)[C@@H](O)CC1=O)[C@H](C)C[C@@H]2OC [Tacrolimus, tacrolimus]
- potency relative to cyclosporin [4]: up to 100 times
- therapeutic trough concentration [5]: 5 to 20 µg/L

Compound: CCCCCCCCOS(=O)(=O)[O-].CCCCn1cc[n+](C)c1 [1-Butyl-3-methyl-imidazoliumoctylsulfate]
- clear after (min.) [1, 6]: immediately

Compound: CCCC[n+]1cccc(C)c1.[Cl-] [1-Butyl-3-methyl pyridiniumchloride]
- clear after (min.) [1, 6]: turbid

Compound: CO[C@H]1C[C@@H]2CC[C@@H](C)[C@@](O)(O2)C(=O)C(=O)N2CCCC[C@H]2C(=O)O[C@H]([C@H](C)C[C@@H]2CC[C@@H](O)[C@H](OC)C2)CC(=O)[C@H](C)/C=C(\C)[C@@H](O)[C@@H](OC)C(=O)[C@H](C)C[C@H](C)/C=C/C=C/C=C/1C [Sirolimus, sirolimus]
- therapeutic trough concentration [5]: 5 to 15 µg/L

Compound: COc1c(C)c2c(c(O)c1C/C=C(\C)CCC(=O)OCCN1CCOCC1)C(=O)OC2 [MMF, mycophenolate mofetil]
- therapeutic trough concentration [5]: 1000 to 3500 µg/L
